In patent US20230013669A1, “Antibacterial Treatment Using a Cannabinoid and an Active Agent” (priority 2019, published 2023):
Several values for one entry are separate records, joined by “and”; a condition that tells them apart may be missing. Identical values can stand only once.

Tests used:
[1] = tested on: Klebsiella pneumoniae ATCC 700603; assay: Synergy of cannabidiol with cell-wall disrupting agent (CBD MIC in combination, FICI); format: cell-based; settings: for FICI: CBD MIC taken as 256 μg/mL; for MIC: Klebsiella pneumoniae
Description: (§1) Methods were as for Example 1. Cannabidiol was tested in combination with cefotetan.
(§2) Methods were as for Example 1. Cannabidiol was tested in combination with aztreonam.
(§3) Methods were as for Example 1. Cannabidiol was tested in combination with cefepime.
(§4) Methods were as for Example 1. Cannabidiol was tested in combination with octapeptin C4.
(§5) Methods were as for Example 1. Cannabidiol was tested in combination with Spero SPR206. The experiments were carried out three times.

[2] = tested on: Klebsiella pneumoniae ATCC 700603; assay: MIC micro-broth dilution assay (Example 1 method); format: cell-based; settings: Klebsiella pneumoniae, ATCC700603; CBD alone; read-out: CBD MIC
Description: as §1, §2, §3, §4, §5

`C=C(C)C1CCC(C)=CC1c1c(O)cc(CCCCC)cc1O` (stereo not drawn) [Cannabidiol, 2-[3-methyl-6-(1-methylethenyl)-2-cyclohexen-1-yl]-5-pentyl-1,3-benzenediol] was tested, and the “CBD MIC with Aztreonam” value ([1]; Aztreonam at 64 μg/mL) was 0.001 µg/mL, the FICI ([1]; CBD with Aztreonam at 2 μg/mL) was 1 and the FICI ([1]; CBD with Aztreonam at 4 μg/mL) was 1. It also gave an FICI ([1]; CBD with Aztreonam at 8 μg/mL) of 1.001, an FICI ([1]; CBD with Aztreonam at 16 μg/mL) of 1.002 and an FICI ([1]; CBD with Aztreonam at 32 μg/mL) of 1.004. The FICI ([1]; CBD with Aztreonam at 64 μg/mL) was 0.007816, the FICI range ([1]; CBD with Aztreonam, Synergy table (Table 76)) was 0.008 and the FICI range ([1]; CBD with Aztreonam, all tested concentrations (Table 74)) was 0.01-1. The FICI ([1]; CBD with Cefepime at 0.015 μg/mL) was 1.015, the FICI ([1]; CBD with Cefepime at 0.031 μg/mL) was 1.031 and the FICI ([1]; CBD with Cefepime at 0.062 μg/mL) was 1.062. The FICI ([1]; CBD with Cefepime at 0.5 μg/mL) was 1.5, the FICI range ([1]; CBD with Cefepime, all tested concentrations (Table 79)) was 1.02-1.5 and the FICI ([1]; CBD with Cefotetan at 0.015 μg/mL) was 1.03 and 1.015. The FICI ([1]; CBD with Cefotetan at 0.031 μg/mL) was 1.062 and 1.031, the FICI ([1]; CBD with Cefotetan at 0.062 μg/mL) was 1.124 and 1.062 and the FICI ([1]; CBD with Cefotetan at 0.25 μg/mL) was 1.5. For the same compound, the FICI ([1]; CBD with Cefotetan at 0.5 μg/mL) was 1 and 0.5, the FICI ([1]; CBD with Octapeptin C4 at 0.25 μg/mL) was 1.0625 and the FICI ([1]; CBD with Octapeptin C4 at 0.5 μg/mL) was 1.0625. For the same compound, the FICI ([1]; CBD with Octapeptin C4 at 2 μg/mL) was 1.5, the FICI ([1]; CBD with Octapeptin C4 at […]) was 1.016 and the FICI range ([1]; CBD with Spero SPR206, 1st of 3 experiments) was 0.52-16. For the same compound, the FICI range ([1]; CBD with Spero SPR206, 2nd of 3 experiments) was 0.28-1.12, the FICI range ([1]; CBD with Spero SPR206, 3rd of 3 experiments) was 1.25-8 and the FICI ([1]; CBD with Spero SPR206 at 0.007 μg/mL, 2nd of 3 experiments) was 1.014. It also gave an FICI ([1]; CBD with Spero SPR206 at 0.015 μg/mL, 2nd of 3 experiments) of 1.03, an FICI ([1]; CBD with Spero SPR206 at 0.031 μg/mL, 2nd of 3 experiments) of 1.062 and an FICI ([1]; CBD with Spero SPR206 at 0.062 μg/mL, 2nd of 3 experiments) of 1.124. It also gave an FICI ([1]; CBD with Spero SPR206 at 0.25 μg/mL, 1st of 3 experiments) of 1, an FICI ([1]; CBD with Spero SPR206 at 0.25 μg/mL, 2nd of 3 experiments) of 0.5039 and an FICI ([1]; CBD with Spero SPR206 at 0.25 μg/mL, 3rd of 3 experiments) of 1.5. The FICI ([1]; CBD with Spero SPR206 at 0.5 μg/mL, 1st of 3 experiments) was 2, the FICI ([1]; CBD with Spero SPR206 at 0.5 μg/mL, 3rd of 3 experiments) was 2 and the FICI ([1]; CBD with Spero SPR206 at 1 μg/mL, 1st of 3 experiments) was 4. The FICI ([1]; CBD with Spero SPR206 at 1 μg/mL, 3rd of 3 experiments) was 3, the FICI ([1]; CBD with Spero SPR206 at 2 μg/mL, 1st of 3 experiments) was 8 and the FICI ([1]; CBD with Spero SPR206 at 2 μg/mL, 3rd of 3 experiments) was 4.004 and 4.008. For the same compound, the FICI ([1]; CBD with Spero SPR206 at 4 μg/mL, 1st of 3 experiments) was 16, the FICI ([1]; CBD with Spero SPR206 at 4 μg/mL, 3rd of 3 experiments) was 8 and the FICI ([1]; CBD with Spero SPR206 at […], 1st of 3 experiments) was 0.5156. For the same compound, the “CBD MIC with Cefotetan” value ([1]; Cefotetan at 0.015 μg/mL) was greater than 32 µg/mL, the “CBD MIC with Cefotetan” value ([1]; Cefotetan at 0.031 μg/mL) was greater than 32 µg/mL and the “CBD MIC with Cefotetan” value ([1]; Cefotetan at 0.062 μg/mL) was greater than 32 µg/mL. The “CBD MIC with Cefotetan” value ([1]; Cefotetan at 0.25 μg/mL) was greater than 32 µg/mL, the “CBD MIC with Cefotetan” value ([1]; Cefotetan at 0.5 μg/mL) was 0.001 µg/mL and the “CBD MIC with Cefotetan” value ([1]; Cefotetan at […]) was greater than 32 µg/mL. For the same compound, the MIC ([1]; ATCC700603, Octapeptin C4 at 4 μg/mL, read-out: CBD MIC with Octapeptin C4) was 1 µg/mL, the MIC ([1]; ATCC700603, Spero SPR206 at 0.007 μg/mL, 2nd of 3 experiments, read-out: CBD MIC with Spero SPR206) was greater than 256 µg/mL and the MIC ([1]; ATCC700603, Spero SPR206 at 0.015 μg/mL, 2nd of 3 experiments, read-out: CBD MIC with Spero SPR206) was greater than 256 µg/mL. The MIC ([1]; ATCC700603, Spero SPR206 at 0.031 μg/mL, 2nd of 3 experiments, read-out: CBD MIC with Spero SPR206) was greater than 256 µg/mL, the MIC ([1]; ATCC700603, Spero SPR206 at 0.062 μg/mL, 2nd of 3 experiments, read-out: CBD MIC with Spero SPR206) was greater than 256 µg/mL and the MIC ([1]; ATCC700603, Spero SPR206 at 0.25 μg/mL, 1st of 3 experiments, read-out: CBD MIC with Spero SPR206) was 0.001 µg/mL. For the same compound, the MIC ([1]; ATCC700603, Spero SPR206 at 0.25 μg/mL, 2nd of 3 experiments, read-out: CBD MIC with Spero SPR206) was 1 µg/mL, the MIC ([1]; ATCC700603, Spero SPR206 at 0.25 μg/mL, 3rd of 3 experiments, read-out: CBD MIC with Spero SPR206) was greater than 256 µg/mL and the MIC ([1]; ATCC700603, Spero SPR206 at 0.5 μg/mL, 1st of 3 experiments, read-out: CBD MIC with Spero SPR206) was 0.001 µg/mL. It also gave an MIC ([1]; ATCC700603, Spero SPR206 at 0.5 μg/mL, 3rd of 3 experiments, read-out: CBD MIC with Spero SPR206) greater than 256 µg/mL, an MIC ([1]; ATCC700603, Spero SPR206 at 1 μg/mL, 1st of 3 experiments, read-out: CBD MIC with Spero SPR206) of 0.001 µg/mL and an MIC ([1]; ATCC700603, Spero SPR206 at 1 μg/mL, 3rd of 3 experiments, read-out: CBD MIC with Spero SPR206) greater than 256 µg/mL. It also gave an MIC ([1]; ATCC700603, Spero SPR206 at 2 μg/mL, 1st of 3 experiments, read-out: CBD MIC with Spero SPR206) of 0.001 µg/mL, an MIC ([1]; ATCC700603, Spero SPR206 at 2 μg/mL, 3rd of 3 experiments, read-out: CBD MIC with Spero SPR206) of 1 µg/mL and an MIC ([1]; ATCC700603, Spero SPR206 at 4 μg/mL, 1st of 3 experiments, read-out: CBD MIC with Spero SPR206) of 0.001 µg/mL. For the same compound, the MIC ([1]; ATCC700603, Spero SPR206 at 4 μg/mL, 3rd of 3 experiments, read-out: CBD MIC with Spero SPR206) was 0.001 µg/mL, the MIC ([1]; ATCC700603, read-out: CBD MIC with Spero SPR206, Spero SPR206 at […], 1st of 3 experiments) was 4 µg/mL and the MIC ([1]; ATCC700603, read-out: CBD MIC with Spero SPR206, Spero SPR206 at […], 2nd of 3 experiments) was 8 µg/mL. For the same compound, the “CBD MIC with Octapeptin C4” value ([1]; Octapeptin C4 at 4 μg/mL, listed as CBD) was 0.5 µg/mL, the “CBD MIC with Spero SPR206” value ([1]; Spero SPR206 at 2 μg/mL, 3rd of 3 experiments, listed as CBD) was 2 µg/mL and the MIC [2] was 256 µg/mL.
